How the values were obtained:
[1] = tested on: mouse vaginal epithelial cells; test: Diethylstilbestrol-induced excessive proliferation of mouse vaginal epithelial cells (PDT, mitotic index); format: in vivo, ICR mice; settings: for Mitotic Index: x ± s, n = 10
Excerpt: Estrogen (for example diethylstilbestrol) may induce the active proliferation of mouse vaginal epithelial cells, thereby accelerating the turnover of epithelial cells; and colchicine may make the cell cycle stagnated in the mitotic metaphase and then the inhibition effects of a test substance on mitosis and excessive cell proliferation may be observed. This model may simulate the characteristic of overly rapid proliferation of epithelial cells in psoriasis patients, is simple and easy to obtain, and is one of the most common animal models in the assessment of drug efficacy for psoriasis.
Sixty ICR mice were taken and randomly divided into 6 groups according to weights: blank control group, model control group, irradiation without administration group and PDT groups 1, 2 and 3. Except for the blank control group, all of other groups were intraperitoneally injected with diethylstilbestrol (0.2 mg/mouse), once-daily for 3 days. […] After protection from light for 6 hours, the PDT groups 1, 2 and 3 and the irradiation without administration group were subjected to laser irradiation by using a semiconductor photodynamic therapeutic instrument; the irradiation conditions were 100 mW×540 s, 300 mW×60 s, 100 mW×60 s and 300 mW×540 s, respectively; the spot diameter was 3 cm; and the abdomen of mice was irradiated. The blank control group and the model control group were not subjected to irradiation. After one week post-irradiation, mice of each group were intraperitoneally injected with colchicine at a dose of 2 mg/kg, making the cell mitosis stagnated in the mitotic metaphase. After 4 hours post-injection of colchicine, animals were sacrificed by anesthesia. Mouse vagina was taken, fixed in 10% formaldehyde solution, conventionally dehydrated, embedded in paraffin, sliced and stained with HE; 300 basal cells were counted under a microscope and the number of mitotic cells was calculated and the mitotic index was calculated (number of mitotic cells per 100 basal cells).

[2] = tested on: propranolol-induced psoriasis-like lesions; test: Propranolol-induced psoriasis-like lesions on guinea pig ears (PDT, histology); format: in vivo
Excerpt: Propranolol is a β-adrenergic receptor blocking agent, and it may be applied to guinea pig skin to block the β-adrenergic receptor in keratinocytes and thereby reducing the intracellular cAMP level, leading to histopathological changes similar to psoriasis such as hyperkeratosis, parakeratosis and acanthosis of animal epidermis, which are the same as human psoriatic lesions at the molecular level. Application of propranolol to ear skin of guinea pig to replicate a psoriasis-like skin model is often used for observing the therapeutic effect of a drug on psoriasis.
Preparation method for 5% propranolol liniment: dissolving 5 g powder of propranolol API in 50 mL of 50% ethanol, adding 5 g of polyoxyethylene pyrrolidone 30, 2.5 mL of azone, 2.5 mL of propylene glycol, and finally adding 50% ethanol to 100 mL. 5% propranolol was prepared fresh for use. Forty-two guinea pigs were randomly divided into a blank control group and a model-establishing group according to weights, 6 guinea pigs in the blank control group and 36 guinea pigs in the model-establishing group. 5% propranolol was applied uniformly on the back of both ears of guinea pigs in the model-establishing group at a dose of 0.1 mL/ear, once in the morning and once in the afternoon, and the administration lasted for continuous 4 weeks. After the model was established, the guinea pigs in the model-establishing group were randomly divided into 6 groups according to weights again, 6 guinea pigs in each group. The 6 groups were model control group, irradiation without administration group, administration without irradiation group, injection administration group and topical administration groups 1 and 2, respectively. The administration without irradiation group and the injection administration group were intravenously injected with α-(8-quinolinyloxy) mono-substituted phthalocyanine zinc solution at a dose of 0.45 mg/kg and the topical administration groups 1 and 2 were respectively applied with 5% and 1% α-(8-quinolinyloxy) mono-substituted phthalocyanine zinc liniments at a dose of 0.1 mL/ear. […] were not administrated. After protection from light for 24 hours, the irradiation without administration group, the injection administration group and the topical administration groups 1 and 2 were subjected to laser irradiation by using a semiconductor photodynamic therapeutic instrument with the following irradiation conditions: output power, 1,000 mW; spot diameter, 6 cm; irradiation time, 399 s; irradiation dose, 14 J/cm^2. After irradiation, animals were protected from light for 48 hours, and then recovered for 3 days. A photodynamic therapy (administration, irradiation, protection from light and recovery) was repeated once according to the abovementioned steps. […]

[3] = tested on: HaCaT cells; test: Proliferation inhibition of HaCaT cells after 670 nm irradiation (MTT); format: cell-based, human
Method: HaCaT cell line, a cell line of normally mutated and immortalized human keratinocyte, is one of the most wildly used cell models for the currently study of psoriasis. As compared with primary cultured keratinocytes, HaCaT cells have similar biological properties, but its operation is simpler.
HaCaT cells were routinely cultured in RPMI-1640 medium containing 10% fetal bovine serum at 37° C. in a 5% CO2 incubator. The cells were harvested in logarithmic growth phase, digested with 0.25% trypsin (containing EDTA), adjusted to a cell density of 2×10^5 cells/mL and seeded in a 96-well plate, 100 μL per each well; after incubation for 24 hours, α-(8-quinolinyloxy) mono-substituted phthalocyanine zinc was added at concentrations of 0.001 μg/mL, 0.01 μg/mL, 0.1 μg/mL, 1 μg/mL and 10 μg/mL respectively and three complex wells were set for each concentration. […] The culture medium was discarded; 200 μL of MTT solution (0.5 mg/mL) was added to each well; the cells were incubated for additional 4 hours; then, 200 μL of dimethyl sulfoxide was added to each well and the absorbance value of each well was measured by a microplate reader at 545 nm (reference wavelength: 450 nm). 3 times of parallel measurements were conducted and the mean value was calculated. The inhibition rate of proliferation was calculated and IC50 was calculated by Bliss method.

## α-(8-quinolinyloxy) mono-substituted phthalocyanine zinc
[1]; PDT group 1: dose 2 mg/kg i.p., irradiation 540 s, 100 mW
  Mitotic Index: 6.4 ± 2.2^##^ %
[1]; PDT group 2: dose 1 mg/kg i.p., irradiation 60 s, 300 mW
  Mitotic Index: 7.2 ± 2.6 %
[1]; PDT group 3: dose 0.5 mg/kg i.p., irradiation 60 s, 100 mW
  Mitotic Index: 10.3 ± 4.3 %
[1]; PDT groups 1, 2 and 3
  Mitotic index compared with the model control group (result in words): significantly reduced
[2]; administration without irradiation group: 0.45 mg/kg i.v., no laser
  Psoriasis-like lesions of the guinea pig ear (result in words): improved to some extent but not obviously
[2]; injection administration group: 0.45 mg/kg i.v., laser 1,000 mW, 399 s, 14 J/cm^2, two photodynamic therapies
  Psoriasis-like lesions of the guinea pig ear (result in words): improved significantly
[2]; topical administration group 1: 5% liniment 0.1 mL/ear, laser 1,000 mW, 399 s, 14 J/cm^2, two photodynamic therapies
  Psoriasis-like lesions of the guinea pig ear (result in words): improved significantly
[2]; topical administration group 2: 1% liniment 0.1 mL/ear, laser 1,000 mW, 399 s, 14 J/cm^2, two photodynamic therapies
  Psoriasis-like lesions of the guinea pig ear (result in words): improved significantly
[3]; 0.001-10 μg/mL, 670 nm irradiation
  Proliferation of HaCaT cells (result in words): inhibit the proliferation of HaCaT cells in a concentration-dependent manner
[3]; 4 h incubation, 670 nm irradiation 1500 mW, spot 8 cm, 180 s, MTT 48 h after irradiation, Bliss method
  IC50, inhibition of proliferation of HaCaT cells: 0.197 ± 0.022 µg/mL

— patent publication US10058611B2, “Use of α-(8-quinolinyloxy) mono-substituted phthalocyanine zinc for treatment of psoriasis” (BEIJING GUIQIANJIN MEDICAL SCIENCE AND TECHNOLOGY CO., LTD., priority 2014, dated 2018)
